The results in this text go back to patent publication US4971968A, “Pyridazinone derivatives and salts thereof” (Mitsubishi Kasei Corporation, priority 1983, dated 1990).

The subject of one series is papillary muscle of dog. The series is described as follows: Effect on contraction of an isolated and cross-circulated papillary muscle preparation of the dog. Particulars: Canis lupus familiaris, read-out: Contraction of papillary muscle of dog, increase; for activation at 0.01 mg: 10 μg i.a.; for activation at 0.03 mg: 30 μg i.a. The procedure: 1. Effect on contraction of an isolated and cross-circulated papillary muscle preparation of the dog
An isolated and cross-circulated papillary muscle preparation of the dog was prepared by Endo and Hashimoto's method (referred to American Journal of Physiology, 218, 1459-1463, 1970). The effect of the compound was measured by closely intraarterially injecting the compound dissolved in a solvent to the papillary muscle for the purpose of recording its effect on contraction of papillary muscle.

The test system of series [1] is left atrium of guinea pig. The series is described as follows: Effect on contraction of an isolated left atrium of the guinea pig. To be noted: Cavia porcellus, read-out: Contraction of left atrium of guinea pig, increase; for activation at 30 µg/mL: 3 × 10^-5 g/ml; for activation at 10 µg/mL: 10^-5 g/ml. The procedure: 2. Effect on contraction of an isolated left atrium of the guinea pig
A left atrium was isolated from a male guinea pig with 200-300 g of body weight soon after striking on the back of its head. The mitral orifice was fixed to the bottom of an organ bath filled with 30 ml of Krebs-Henseleit solution maintained at 35° C. A gas mixture comprising 95% of O2 and 5% of CO2 was passed through the Krebs-Henseleit solution in the organ bath. Isometric tension was measured by connecting a left auricle of heart and a transducer by a yarn. A resting tension of 0.5 g was given to the atrium, which was then electrically driven with square pulses with duration of 1 msec and voltage of 1.5 times as much as threshold in the rate of 2 Hz via dipolar platinum electrodes.
After stabilizing the atrium for 30 minutes from its preparation, the compound dissolved in a solvent was added to the organ bath to measure its effect.

The subject of a further series is Anesthetized dog. Nature of the series: Effects on myocardial contraction in anesthetized dogs. It counts as in vivo, dog (male and female mongrel dogs). Particulars: for Anesthetized dog, CO (cardiac output) increase: aortic blood flow as index. The procedure:
3. Effects on myocardial contraction in anesthetized dogs
Male and female mongrel dogs with body weight of 8-15 kg were used. A dog was anesthetized by intraveneous injection of 30 mg/kg of sodium pentobarbital and practiced artificial respiration. The dog was thoractomized between fourth and fifth costa which was cut off. The pericardium was incised to expose heart. Blood flow through the aorta, which was measured with an electromagnetic blood flowmeter whose probe was attached to the ascending aorta, was used as an approximate index of cardiac output (CO). Left ventricular pressure (LVP) was measured with a Miller Catheter-tip pressure transducer and the first derivative of the LVP (dP/dt) was measured with a differentiater. Contraction of right ventricular muscle (Cont) was determined with a strain-gauge attached to the wall. Systemic blood pressure was measured from the left femoral artery. Heart rate was measured with electrocardiogram (lead II) and a cardiotachometer. The compound dissolved in a solvent was administered intravenously from a left femoral vein.

The nature of series [2]: Acute toxicity (LD50) for intravenous and oral administration in male mice. To be noted: mouse, in vivo. How it is done: Acute toxicity (LD50) for intravenous and oral administration in male mice was determined by the method of […] and Wilcoxon (referred to Journal of Pharmacology and Experimental Therapeutics, 96, 99-113, 1949).

Regarding `O=C1CCC(c2ccc(Nc3ccncc3)cc2)=NN1` [6-[4-(4'-pyridyl)aminophenyl]-4,5-dihydro-3(2H)-pyridazinone], in the series on papillary muscle of dog, the activation at 0.01 mg turned out to be 13.2% and the activation at 0.03 mg worked out at 15.4%. Also, in series [1], the activation at 30 µg/mL was 138% and the activation at 10 µg/mL is 115%. Besides, in the series with Anesthetized dog (10 μg/kg i.v.), the “Anesthetized dog, Cont (contraction of right ventricular muscle) increase” value was found to be 23%; the “Anesthetized dog, dP/dt max increase” value worked out at 45%; the “Anesthetized dog, CO (cardiac output) increase” value was 13%. In the series on Anesthetized dog (30 μg/kg i.v.), the “Anesthetized dog, Cont (contraction of right ventricular muscle) increase” value is reported as 57%; the “Anesthetized dog, dP/dt max increase” value turned out to be 93%; the “Anesthetized dog, CO (cardiac output) increase” value turned out to be 28%. This compound also yielded a 50% lethal dose (LD50) in series [2] (iv) of 97 mg/kg. In series [2] (po), the LD50 amounted to 341 mg/kg.
For the compound `CC1CC(c2ccc(Nc3ccncc3)cc2)=NNC1=O` (stereo not drawn) [6-[4-(4'-pyridyl)aminophenyl]-4-methyl-4,5-dihydro-3(2H)pyridazinone], in the series on papillary muscle of dog, the activation at 0.01 mg came out at 22.6% and the activation at 0.03 mg is 50%. In series [1], the activation at 30 µg/mL turned out to be 109% and the activation at 10 µg/mL worked out at 85.9%. In the series with Anesthetized dog (30 μg/kg i.v.), the “Anesthetized dog, Cont (contraction of right ventricular muscle) increase” value is 21.6%; the “Anesthetized dog, dP/dt max increase” value is 29.1%; the “Anesthetized dog, CO (cardiac output) increase” value was 8.6%. Further, in the series with Anesthetized dog (100 μg/kg i.v.), the “Anesthetized dog, Cont (contraction of right ventricular muscle) increase” value came out at 64.0%; the “Anesthetized dog, dP/dt max increase” value was 64.7%; the “Anesthetized dog, CO (cardiac output) increase” value was 26.7%.
As to `CC1CC(=O)NN=C1c1ccc(Nc2ccncc2)cc1` (stereo not drawn) [6-[4-(4'-pyridyl)aminophenyl]-5-methyl-4,5-dihydro-3(2H)pyridazinone], the activation at 0.003 mg in the series on papillary muscle of dog (3 μg i.a.) is 28.6%. Also, the activation at 0.01 mg with papillary muscle of dog worked out at 38.7%. In series [1], the activation at 30 µg/mL came to 97.9% and the activation at 10 µg/mL amounted to 86.6%. Also, in the series with Anesthetized dog (3 μg/kg i.v.), the “Anesthetized dog, Cont (contraction of right ventricular muscle) increase” value is recorded as 13.3%; the “Anesthetized dog, dP/dt max increase” value is recorded as 14.4%; the “Anesthetized dog, CO (cardiac output) increase” value is reported as 14.4%. Also, in the series with Anesthetized dog (10 μg/kg i.v.), the “Anesthetized dog, Cont (contraction of right ventricular muscle) increase” value amounted to 75.9%; the “Anesthetized dog, dP/dt max increase” value was 73.8%; the “Anesthetized dog, CO (cardiac output) increase” value worked out at 26.7%.
Consider `O=C1CCC(c2ccc(Nc3ncccn3)cc2)=NN1` [6-[4-(2'-pyrimidinyl)aminophenyl]-4,5-dihydro-3(2H)-pyridazinone], for which, in the series with papillary muscle of dog, the activation at 0.03 mg worked out at 5.7%. In the series with papillary muscle of dog (100 μg i.a.), the activation at 0.1 mg amounted to 15.9%. Besides, in series [1], the activation at 30 µg/mL worked out at 66% and the activation at 10 µg/mL was found to be 42%.

In general, LD50 refers to the dose expected to kill half of the subjects tested. Lower therefore signals greater toxicity.
